US20170190671A1, “BIS(ARYL)CATECHOL DERIVATIVES AS HERBICIDES” (E I DU PONT DE NEMOURS AND COMPANY, priority 2014, published 2017)

Assays:
Experiment in all cases: Test C postemergence
Assay type in all cases: in vivo
corn (Zea mays) = settings: Zea mays, post-emergence, 336 h, Postemergence, scale 0 to 100
How it was run: (§1)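 Seeded loam-sand soil (preemergence) or young potted plants of 2-18 cm (postemergence) received test chemical formulated with surfactant in a non-phytotoxic solvent. Pots were kept in the greenhouse for 13-15 days before a visual 0-100 control rating relative to controls.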

[1] = system: johnsongrass (Sorghum halepense); settings: Sorghum halepense, post-emergence, 336 h, Postemergence, scale 0 to 100, read-out: Plant response rating, Johnsongrass
How it was run: as §1

[2] = system: large (Lg) crabgrass (Digitaria sanguinalis); settings: Digitaria sanguinalis, post-emergence, 336 h, Postemergence, scale 0 to 100, read-out: Plant response rating, Crabgrass, Large
How it was run: as §1

[3] = system: velvetleaf (Abutilon theophrasti); settings: Abutilon theophrasti, post-emergence, Postemergence, scale 0 to 100, read-out: Plant response rating, Velvetleaf
How it was run: as §1

[4] = system: barnyardgrass (Echinochloa crus-galli); settings: Echinochloa crus-galli, post-emergence, Postemergence, scale 0 to 100, read-out: Plant response rating, Barnyardgrass
How it was run: as §1

[5] = system: Italian ryegrass (Lolium multiflorum); settings: Lolium multiflorum, post-emergence, 336 h, Postemergence, scale 0 to 100, read-out: Plant response rating, Ryegrass, Italian
How it was run: as §1

[6] = system: lambsquarters (Chenopodium album); settings: Chenopodium album, post-emergence, 336 h, Postemergence, scale 0 to 100, read-out: Plant response rating, Lambsquarters
How it was run: as §1

[7] = system: giant foxtail (Setaria faberii); settings: Setaria faberi, post-emergence, 336 h, Postemergence, scale 0 to 100, read-out: Plant response rating, Foxtail, Giant
How it was run: as §1

[8] = system: morningglory (Ipomoea coccinea); settings: Ipomoea, post-emergence, 336 h, Postemergence, scale 0 to 100, read-out: Plant response rating, Morningglory
How it was run: as §1

soybean (Glycine max) = settings: Glycine max, post-emergence, Postemergence, scale 0 to 100, read-out: Plant response rating, Soybean
How it was run: as §1

[9] = system: oilseed rape (Brassica napus); settings: Brassica napus, post-emergence, Postemergence, scale 0 to 100, read-out: Plant response rating, Oilseed Rape
How it was run: as §1

[10] = system: blackgrass (Alopecurus myosuroides); settings: Alopecurus myosuroides, post-emergence, 336 h, Postemergence, scale 0 to 100, read-out: Plant response rating, Blackgrass
How it was run: as §1

[11] = system: ragweed (common ragweed, Ambrosia elatior); settings: Ambrosia artemisiifolia, post-emergence, 336 h, Postemergence, scale 0 to 100, read-out: Plant response rating, Ragweed
How it was run: as §1

[12] = system: winter wheat (Triticum aestivum); settings: Triticum aestivum, post-emergence, 336 h, Postemergence, scale 0 to 100, read-out: Plant response rating, Wheat
How it was run: as §1

What does the source list for Fc1cnc(Oc2c(F)ccc(F)c2Oc2ncc(F)cn2)nc1 [Compound 29, 2,2′-[(3,6-difluoro-1,2-phenylene)bis(oxy)]bis[5-fluoropyrimidine]]?
Corn plant response rating (crop injury, 0 = no effect, 100 = complete kill) at 16 g/ha (corn (Zea mays); 16 g ai/ha): 0%; Corn plant response rating (crop injury, 0 = no effect, 100 = complete kill) at 31 g/ha (corn (Zea mays); 31 g ai/ha): 0%; Corn plant response rating (crop injury, 0 = no effect, 100 = complete kill) at 62 g/ha (corn (Zea mays); 62 g ai/ha): 5%; Corn plant response rating (crop injury, 0 = no effect, 100 = complete kill) at 125 g/ha (corn (Zea mays); 125 g ai/ha): 5%; pest or weed control at 16 g/ha ([1]; 16 g ai/ha): 0%; pest or weed control at 31 g/ha ([1]; 31 g ai/ha): 0%; pest or weed control at 62 g/ha ([1]; 62 g ai/ha): 20%; pest or weed control at 125 g/ha ([1]; 125 g ai/ha): 20%; pest or weed control at 16 g/ha ([2]; 16 g ai/ha): 0%; pest or weed control at 31 g/ha ([2]; 31 g ai/ha): 0%; pest or weed control at 62 g/ha ([2]; 62 g ai/ha): 5%; pest or weed control at 125 g/ha ([2]; 125 g ai/ha): 10%; pest or weed control at 31 g/ha ([3]; 31 g ai/ha): 75%; pest or weed control at 62 g/ha ([3]; 62 g ai/ha): 75%; pest or weed control at 125 g/ha ([3]; 125 g ai/ha): 80%; pest or weed control at 16 g/ha ([4]; 16 g ai/ha): 0%; pest or weed control at 31 g/ha ([4]; 31 g ai/ha): 0%; pest or weed control at 62 g/ha ([4]; 62 g ai/ha): 5%; pest or weed control at 125 g/ha ([4]; 125 g ai/ha): 15%; pest or weed control at 31 g/ha ([5]; 31 g ai/ha): 0%; pest or weed control at 62 g/ha ([5]; 62 g ai/ha): 35%; pest or weed control at 125 g/ha ([5]; 125 g ai/ha): 20%; pest or weed control at 16 g/ha ([6]; 16 g ai/ha): 75%; pest or weed control at 31 g/ha ([6]; 31 g ai/ha): 80%; pest or weed control at 62 g/ha ([6]; 62 g ai/ha): 85%; pest or weed control at 125 g/ha ([6]; 125 g ai/ha): 85%; pest or weed control at 16 g/ha ([7]; 16 g ai/ha): 0%; pest or weed control at 31 g/ha ([7]; 31 g ai/ha): 0%; pest or weed control at 62 g/ha ([7]; 62 g ai/ha): 5%; pest or weed control at 125 g/ha ([7]; 125 g ai/ha): 20%; pest or weed control at 31 g/ha ([8]; 31 g ai/ha): 75%; pest or weed control at 62 g/ha ([8]; 62 g ai/ha): 90%; pest or weed control at 125 g/ha ([8]; 125 g ai/ha): 95%; plant injury at 31 g/ha (soybean (Glycine max); 31 g ai/ha): 70%; plant injury at 62 g/ha (soybean (Glycine max); 62 g ai/ha): 75%; plant injury at 125 g/ha (soybean (Glycine max); 125 g ai/ha): 85%; plant injury at 31 g/ha ([9]; 31 g ai/ha): 60%; plant injury at 62 g/ha ([9]; 62 g ai/ha): 70%; plant injury at 125 g/ha ([9]; 125 g ai/ha): 90%; pest or weed control at 16 g/ha ([10]; 16 g ai/ha): 0%; pest or weed control at 31 g/ha ([10]; 31 g ai/ha): 0%; pest or weed control at 62 g/ha ([10]; 62 g ai/ha): 5%; pest or weed control at 125 g/ha ([10]; 125 g ai/ha): 20%; pest or weed control at 31 g/ha ([11]; 31 g ai/ha): 70%; pest or weed control at 62 g/ha ([11]; 62 g ai/ha): 75%; pest or weed control at 125 g/ha ([11]; 125 g ai/ha): 80%; plant injury at 31 g/ha ([12]; 31 g ai/ha): 0%; plant injury at 62 g/ha ([12]; 62 g ai/ha): 0%; plant injury at 125 g/ha ([12]; 125 g ai/ha): 0%
